Experiments:
[1] = Catalysis of O2.^− dismutation by pulse radiolysis; type: biochemical; settings: for log kcat for O2^− dismutation: pulse radiolysis, pH 7.8, (22 ± 1) °C, kcat ±30%
Method: Catalysis of O2.^− dismutation. The catalytic rate constants for the O2.^− dismutation were determined by pulse radiolysis in 0.05 M phosphate buffer (pH 7.8) at (22±1)° C. as previously described (Batinic-Haberle et al, Inorg. Chem. 40:726 (2001)). In the present study 10 mM formate was used as a scavenger for H. atoms and .OH radicals, which leads first to production of CO2.^− radicals and then to O2.^− radicals. This system is known to lead to conversion of all primary radicals of water radiolysis into O2.^−.
Catalysis of O2.^− dismutation. Pulse radiolysis was used to assess the SOD-like activities of the Mn porphyrins studied. The initial concentration of O2.^− produced by the pulse was about 27 μM, and the concentration of the Mn porphyrin was between 0.5 and 5 μM. The dismutation of O2.^− was followed at 280 nm. The catalytic rate constant was determined from the linear dependence of kobs upon the concentration of the catalyst (Batinic-Haberle et al, Inorg. Chem. 40:726 (2001)). All the new compounds have high O2.^− dismuting ability. The magnitude of the catalysis is due to the interplay of the electron-withdrawing effects of quaternized ortho pyridyl or di-ortho imidazolyl groups, favorable electrostatics, and the solvation of the metal site.

[2] = Thin-layer chromatography on silica gel (retention factor Rf, lipophilicity); type: physicochemical; settings: silica gel TLC, KNO3-saturated H2O/H2O/acetonitrile = 1/1/8; for Rf (compound path/solvent path), metal-free porphyrin (in parenthesis): metal-free ligand of the named Mn porphyrin
Method: Uv/vis spectra of porphyrin ligands and their Mn complexes were taken on a Shimadzu UV-2501-PC spectrophotometer at 25° C. Thin-layer chromatography of ligands and Mn complexes was done using silica gel plates with KNO3satH2O/H2O/acetonitrile=1/1/8.
Thin-layer chromatography. All new methoxyporphyrins are more lipophilic than MnTE-2-PyP^5+ and MnTDE-2-ImP^5+.

[3] = Oxidative degradation in the presence of ascorbic acid under aerobic conditions; type: physicochemical; settings: pH 7.8 (0.05 M tris buffer)
Procedure, shortened: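 Mn porphyrins exposed to ascorbic acid under aerobic conditions; percentage of porphyrin degraded within 2 hours recorded.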

Row | SMILES | log kcat for O2^− dismutation [1] | Rf (compound path/solvent path), metal-free porphyrin (in parenthesis) [2] | Rf (compound path/solvent path), Mn complex [2] | degradation within 2 hours [3] [%] | SOD-like activity relative to MnTE-2-PyP^5+ ([1]; vs MnTE-2-PyP^5+) | kcat higher than MnTnBu-2-PyP^5+ ([1]; vs MnTnBu-2-PyP^5+) [fold]
1 | COCCn1cc[n+](CCOC)c1-c1c2nc(c(-c3n(CCOC)cc[n+]3CCOC)c3ccc([n-]3)c(-c3n(CCOC)cc[n+]3CCOC)c3nc(c(-c4n(CCOC)cc[n+]4CCOC)c4ccc1[n-]4)C=C3)C=C2.[Mn+3] [MnTDMOE-2-ImP^5+, Mn(III) tetrakis 5,10,15,20-tetrakis[N,N′-di(2-methoxyethyl)imidazolium-2-yl]porphyrin] | 7.59 | 0.24 | 0.21 | 2 |  | 
2 | COCC[n+]1ccccc1-c1c2nc(c(-c3cccc[n+]3CCOC)c3ccc([n-]3)c(-c3cccc[n+]3CCOC)c3nc(c(-c4cccc[n+]4CCOC)c4ccc1[n-]4)C=C3)C=C2.[Mn+3] [MnTMOE-2-PyP^5+, Mn(III) tetrakis 5,10,15,20-tetrakis[N-(2-methoxyethyl)pyridinium-2-yl]porphyrin] | 8.04 | 0.18 | 0.16 | 24 | two-fold higher | 6

Source: patent US8183364B2, “Substituted porphyrins” (Duke University, priority 2004, dated 2012)
